According to patent publication US20260130858A1, “LYOPHILIZED SOVATELTIDE-BASED INJECTABLE FORMULATION AND A PROCESS FOR PREPARATION” (PHARMAZZ, INC., priority 2023, published 2026):

Experiments:
[1] = system: acute cerebral ischemic stroke patients; assay: Phase III study in acute cerebral ischemic stroke patients, modified Rankin Scale at day 90; type: in vivo, human; details: for Odds ratio, change in mRS of 2 or more / Odds ratio, mRS of 0-2 day 90 / Relative Risk, change in mRS of 2 or more / Relative Risk, mRS of 0-2 day 90: control vs sovateltide; for Modified Rankin Scale Day 90, mean: day 90 post-randomization; for Difference between means (B − A) ± SEM, Modified Rankin Scale Day 90: sovateltide minus control
Description: A prospective, multicentric, randomized phase III study was conducted in acute cerebral ischemic stroke patients aged 18 years through 78 years. Patients with radiologic confirmation of ischemic stroke could be enrolled if presenting up to 24 hours after the onset of symptoms and with a modified Rankin Score (mRS) of 3 to 4 and an NIHSS (National Institute of Health Stroke Scale) score of greater than 5. Patients with intracranial haemorrhage and those receiving endovascular therapy were excluded.
Patients were randomized in a 1:1 ratio, 80 patients to the sovateltide group and 78 patients to the control (saline) group. Every patient received the standard of care (SOC) and was followed for 90 days. The study drug (normal saline or sovateltide (0.3 μg/kg) was administered in three doses administered as an intravenous bolus over 1 minute at an interval of 3 hours±1 hour on day 1, day 3, and day 6 (total sovateltide dose of 0.9 μg/kg/day).
The primary objectives were to determine the neurological outcome based on modified Rankin Scale (mRS) score, National Institute of Health Stroke Scale (NIHSS) score, and Barthel Index (BI) scale score from day 1 through day 90. In addition, quality-of-Life was measured by EuroQol-EQ-5D (EQ-5D) and stroke-specific quality-of-life (SSQoL) scores at 60 days and 90 days of treatment.
A total of 158 patients with acute cerebral ischemic stroke were enrolled in this test, of which 137 completed 90-day follow-up. Patients received saline (n=70; 45 male and 25 female) or sovateltide (n=67; 45 male and 22 female) within 24 hours of the onset of stroke. Patients received the investigational drug […] at 16.85±0.74 and 17.40±0.67 hours (mean±SEM, p=0.583) of stroke onset in control and sovateltide cohorts, respectively. The baseline characteristics and SOC in both cohorts were similar.

[2] = Solution stability, related substances HPLC method validation (Method 1); details: standard solution at 5° C.; related substances Method 1
Description: Chromatographic Parameters for method validation of Related Substance of Sovateltide Injection (Method 1): Method-1 utilizes chromatographic conditions to separate and quantify a specific compound of interest. The analytical column used is either the Xtimate C18 Column or the ChromCore 120 C18 Column, both with dimensions of 4.6×250 mm and 5 m. A Ghost Buster Column with dimensions of 4.6×50 mm is used to detect any unexpected peaks, which are usually called ghost peaks that may interfere with the results. The flow rate is set to 0.5 mL/min, with an injection volume of 90 μL. The detection wavelength is 215 nm, and the auto sampler temperature is maintained at 5° C. The column oven temperature is set to 50° C., and the run time for the method is 120 min. […] These parameters ensure the separation and accurate quantification of the compound in the sample.
• Mobile Phase A (KH2PO4+ Sodium Chloride in HPLC water). • Mobile Phase-B (Methanol).

[3] = with cerebrolysin, listed as sovateltide
[4] = with citicoline, listed as sovateltide
[5] = with mannitol, sovateltide group n=30
[6] = with mannitol, sovateltide group n=30, listed as sovateltide
[7] = with thrombolytics, listed as sovateltide

Time standard solution is stable [2]: up to 60 Hours
Substance: succinyl-(glutamyl(9)-alanyl(11,15))-endothelin-1 (8-21) [Sovateltide]
Number of patients with change in mRS < 2 from day 1 to day 90 ([1]; with cerebrolysin): 1
Number of patients with mRS 0-2 day 90 ([1]; with cerebrolysin): 11
Number of patients with mRS > 2 day 90 ([1]; with cerebrolysin): 1
Number of patients, change in mRS of 2 or more from day 1 to day 90 (column head mRS > 2) ([1]; with cerebrolysin): 11
Percentage of row total, change in mRS < 2 ([1]; with cerebrolysin): 8.33%
Percentage of row total, change in mRS ≥ 2 ([1]; with cerebrolysin): 91.67%
Percentage of row total, mRS 0-2 day 90 ([1]; with cerebrolysin): 91.67%
Percentage of row total, mRS > 2 day 90 ([1]; with cerebrolysin): 8.33%
Odds ratio, change in mRS of 2 or more ([1]; with cerebrolysin): 0.5455
Odds ratio, mRS of 0-2 day 90 ([1]; with cerebrolysin): 0.8462
Relative Risk, change in mRS of 2 or more ([1]; with cerebrolysin): 0.9351
Relative Risk, mRS of 0-2 day 90 ([1]; with cerebrolysin): 0.8571
Modified Rankin Scale Day 90, mean ([1]; with cerebrolysin, sovateltide group n=12): 0.7500
Number of patients with mRS 0-2 day 90 [1, 3]: similar
Number of patients, change in mRS of 2 or more from day 1 to day 90 (column head mRS > 2) [1, 3]: similar
Difference between means (B − A) ± SEM, Modified Rankin Scale Day 90 ([1]; with cerebrolysin): −0.3214 ± 0.3517
Number of patients with change in mRS < 2 from day 1 to day 90 ([1]; with citicoline): 5
Number of patients with change in mRS ≥ 2 from day 1 to day 90 ([1]; with citicoline): 18
Number of patients with mRS 0-2 day 90 ([1]; with citicoline): 21
Number of patients with mRS > 2 day 90 ([1]; with citicoline): 3
Percentage of row total, change in mRS < 2 ([1]; with citicoline): 21.74%
Percentage of row total, change in mRS ≥ 2 ([1]; with citicoline): 78.26%
Percentage of row total, mRS 0-2 day 90 ([1]; with citicoline): 87.50%
Percentage of row total, mRS > 2 day 90 ([1]; with citicoline): 12.50%
Odds ratio, change in mRS of 2 or more ([1]; with citicoline): 0.3283
Odds ratio, mRS of 0-2 day 90 ([1]; with citicoline): 4.500
Relative Risk, change in mRS of 2 or more ([1]; with citicoline): 0.6921
Relative Risk, mRS of 0-2 day 90 ([1]; with citicoline): 3.130
Modified Rankin Scale Day 90, mean ([1]; with citicoline, sovateltide group n=24): 1.208
Modified Rankin Scale Day 90, mean ([1]; with citicoline, sovateltide group n=24, listed as sovateltide): significantly lower
Number of patients with change in mRS ≥ 2 from day 1 to day 90 [1, 4]: significantly more
Number of patients with mRS 0-2 day 90 [1, 4]: significantly more
Difference between means (B − A) ± SEM, Modified Rankin Scale Day 90 ([1]; with citicoline): −0.7917 ± 0.3638
Percentage of row total, change in mRS < 2 ([1]; with mannitol): 36.67%
Percentage of row total, change in mRS ≥ 2 ([1]; with mannitol): 63.33%
Percentage of row total, mRS 0-2 day 90 ([1]; with mannitol): 63.33%
Percentage of row total, mRS > 2 day 90 ([1]; with mannitol): 36.67%
Odds ratio, change in mRS of 2 or more ([1]; with mannitol): 0.3184
Odds ratio, mRS of 0-2 day 90 ([1]; with mannitol): 2.735
Relative Risk, change in mRS of 2 or more ([1]; with mannitol): 0.5603
Relative Risk, mRS of 0-2 day 90 ([1]; with mannitol): 1.672
Modified Rankin Scale Day 90, mean [1, 5]: 2.033
Modified Rankin Scale Day 90, mean [1, 6]: significantly lower
Number of patients with change in mRS < 2 from day 1 to day 90 [1, 5]: 11
Number of patients with change in mRS ≥ 2 from day 1 to day 90 [1, 5]: 19
Number of patients with mRS 0-2 day 90 [1, 5]: 19
Number of patients with mRS > 2 day 90 [1, 5]: 11
Number of patients with change in mRS ≥ 2 from day 1 to day 90 [1, 6]: significantly more
Number of patients with mRS 0-2 day 90 [1, 6]: significantly more
Difference between means (B − A) ± SEM, Modified Rankin Scale Day 90 ([1]; with mannitol): −0.7086 ± 0.3316
Number of patients with change in mRS < 2 from day 1 to day 90 ([1]; with thrombolytics): 3
Number of patients with change in mRS ≥ 2 from day 1 to day 90 ([1]; with thrombolytics): 6
Number of patients with mRS 0-2 day 90 ([1]; with thrombolytics): 6
Number of patients with mRS > 2 day 90 ([1]; with thrombolytics): 3
Percentage of row total, change in mRS < 2 ([1]; with thrombolytics): 33.33%
Percentage of row total, change in mRS ≥ 2 ([1]; with thrombolytics): 66.67%
Percentage of row total, mRS 0-2 day 90 ([1]; with thrombolytics): 66.67%
Percentage of row total, mRS > 2 day 90 ([1]; with thrombolytics): 33.33%
Odds ratio, change in mRS of 2 or more ([1]; with thrombolytics): 0.7500
Odds ratio, mRS of 0-2 day 90 ([1]; with thrombolytics): 1.333
Relative Risk, change in mRS of 2 or more ([1]; with thrombolytics): 0.9000
Relative Risk, mRS of 0-2 day 90 ([1]; with thrombolytics): 1.200
Modified Rankin Scale Day 90, mean ([1]; with thrombolytics, sovateltide group n=9): 1.667
Number of patients with change in mRS ≥ 2 from day 1 to day 90 [1, 7]: similar
Number of patients with mRS 0-2 day 90 [1, 7]: similar
Difference between means (B − A) ± SEM, Modified Rankin Scale Day 90 ([1]; with thrombolytics): −0.2833 ± 0.6321
